Data published in US12232493B2, “Biopesticide formulation and treatment method thereof” (Xinjiang Institute of Ecology and Geography, Chinese …, priority 2023, dated 2025).
Like-named read-outs stand apart in the source and are kept apart here.

Experiments:
[1] = test system: pakchoi; experiment: Pot experiment under drought treatment, terrein seed soaking or spraying, pakchoi; type: in vivo
Experimental: An embodiment of effects of 2 μg/mL terrein formulation on the growth of four crops by seed soaking treatment under drought conditions is as follows. Terrein (purity 95%) is prepared as a solution with a concentration of 2 μg/mL in distilled water, and pakchoi, mung bean, sorghum, and wheat seeds are soaked in it for 6 hours, and the seeds are also soaked in distilled water as a blank control. Subsequently, the soaked crop seeds are sown into potted plants, and each of the treatment group is replicated five times. When the seedlings grew to about 10 cm, the drought treatment culture is carried out. The room temperature is 25° C., the humidity is 70%, 12 hours of light and 12 hours of darkness each day, and the light intensity is 80-100 μmol·m^−2·s^−1. During the period, the soil was kept in a dry state, and 200 mL is watered every week for 30 days, with a total of 800 mL. The drought culture conditions described below are all treated in the same way. After 30 days, the root length, seedling height, and fresh weight of pakchoi, mung bean, sorghum, and wheat are measured, and 10 seedlings are selected from each of the treatment groups, with a total of 50 plants (N=50), hereafter, they are dried in an oven and then measured dry weight. The growth rates of root length, seedling height, fresh weight, and dry weight of pakchoi, mung bean, sorghum, and wheat under 2 μg/mL compared to the blank control are first calculated, that is, An embodiment of effects of 10 μg/mL terrein formulation on the growth of four crops by seed soaking treatment under drought conditions is as follows. Terrein is prepared as a solution with a concentration of 10 μg/mL in distilled water, and pakchoi, mung bean, sorghum, and wheat seeds are soaked in it for 6 hours, and the seeds are also soaked in distilled water as a blank control. Subsequently, the soaked crop seeds are sown into potted plants. When the seedlings grew to about 10 cm, the drought treatment culture is carried out. After 30 days, the root length, seedling height, and fresh weight of pakchoi, mung bean, sorghum, and wheat are measured, hereafter, they are dried in an oven and then measured dry weight. An embodiment of effects of 2 μg/mL terrein formulation on the growth of four crops by spraying treatment under drought conditions is as follows. Seeds of four tested plants are soaked in distilled water and then sowing. Terrein is prepared as a solution with a concentration of 2 μg/mL in distilled water. When the potted pakchoi, mung bean, sorghum, and wheat grow to about 10 cm (15-20 days after sowing), spray them once, with an amount of about 3 mL, and distilled water sprayed used as blank control. Subsequently, the drought treatment culture is carried out. The room temperature is 25° C., the humidity is 70%, 12 hours of light and 12 hours of darkness each day, and the light intensity is 80-100 μmol·m^−2·s^−1. During the period, the soil was kept in a dry state, and 200 mL is watered every week for 30 days, with a total of 800 mL. After 30 days, the root length, seedling height, and fresh weight of pakchoi, mung bean, sorghum, and wheat are measured, hereafter, they are dried in an oven and then measured dry weight. An embodiment of effects of 10 μg/mL terrein formulation on the growth of four crops by spraying treatment under drought conditions is as follows. Seeds of four tested plants are soaked in distilled water and then sowing. Terrein is prepared as a solution with a concentration of 10 μg/mL in distilled water. When the potted pakchoi, mung bean, sorghum, and wheat grow to about 10 cm (15-20 days after sowing), spray them once, with an amount of about 3 mL, and distilled water sprayed used as blank control. Subsequently, the drought treatment is carried out. After 30 days, the root length, seedling height, and fresh weight of pakchoi, mung bean, sorghum, and wheat are measured, hereafter, they are dried in an oven and then measured dry weight. […]

[2] = test system: pakchoi; experiment: Indoor petri dish bioassay, pakchoi under drought treatment conditions; type: in vivo; conditions: for inhibition at 250 µg/mL: terrein 250 μg/mL
Experimental: The present invention has done corresponding indoor petri dish bioassay experiments before, with pakchoi under drought treatment conditions as the recipient plant, terrein as the donor, and the concentration of terrein is set to 0, 2, 10, 50 and 250 μg/mL. […] Therefore, the present invention only selects low concentrations (2 μg/mL, 10 μg/mL) for experiments to confirm the effect of terrein on drought resistance and growth promotion of crops in outdoor pot experiments.

[3] = 2 μg/mL terrein seed soaking treatment, drought, 30 days
[4] = 2 μg/mL terrein seed soaking, drought, 30 days
[5] = 2 μg/mL terrein seed soaking, drought, 30 days, p<0.05
[6] = 2 μg/mL terrein spraying treatment, drought, 30 days
[7] = 10 μg/mL terrein seed soaking treatment, drought, 30 days
[8] = 10 μg/mL terrein seed soaking, drought, 30 days
[9] = 10 μg/mL terrein spraying treatment, drought, 30 days

Q: `C/C=C/C1=CC(=O)[C@H](O)[C@H]1O` [terrein] was tested. Which effect on growth ([1]; 2 μg/mL terrein seed soaking) did it give?
A: significantly promote

Q: And the dry weight [1, 3]?
A: 0.16 g

Q: And the fresh weight [1, 3]?
A: 1.91 g

Q: What about the root length [1, 3] of the same compound?
A: 15.46 cm

Q: What about the seedling height [1, 3] of the same compound?
A: 11.45 cm

Q: What about the “growth rate of dry weight compared with the blank control” value [1, 4] of the same compound?
A: 32.47%

Q: What about the “growth rate of root length compared with the blank control” value [1, 4] of the same compound?
A: 76.63%

Q: And the “effect on fresh weight compared with the blank control” value [1, 5]?
A: not significant

Q: And the “effect on seedling height compared with the blank control” value [1, 5]?
A: not significant

Q: And the effect on growth ([1]; 2 μg/mL terrein spraying at seedling stage)?
A: significant promoting effect

Q: What about the dry weight [1, 6] of the same compound?
A: 0.13 g

Q: What about the fresh weight [1, 6] of the same compound?
A: 1.75 g

Q: What about the root length [1, 6] of the same compound?
A: 11.59 cm

Q: And the seedling height [1, 6]?
A: 11.40 cm

Q: What about the “growth rate of root length compared with the blank control” value ([1]; 2 μg/mL terrein spraying, drought, 30 days) of the same compound?
A: 32.48%

Q: And the dry weight [1, 7]?
A: 0.18 g

Q: And the fresh weight [1, 7]?
A: 2.45 g

Q: What about the root length [1, 7] of the same compound?
A: 17.43 cm

Q: And the seedling height [1, 7]?
A: 12.21 cm

Q: What about the effect on growth ([1]; 10 μg/mL terrein seed soaking, drought) of the same compound?
A: significant promoting effect

Q: And the “growth rate (promotion rate) of dry weight compared with the blank control” value [1, 8]?
A: 49.12%

Q: And the “growth rate (promotion rate) of fresh weight compared with the blank control” value [1, 8]?
A: 40.34%

Q: What about the “growth rate (promotion rate) of root length compared with the blank control” value [1, 8] of the same compound?
A: 99.19%

Q: What about the “growth rate (promotion rate) of seedling height compared with the blank control” value [1, 8] of the same compound?
A: 15.66%

Q: What about the dry weight [1, 9] of the same compound?
A: 0.14 g

Q: What about the fresh weight [1, 9] of the same compound?
A: 1.85 g

Q: What about the root length [1, 9] of the same compound?
A: 10.19 cm

Q: What about the seedling height [1, 9] of the same compound?
A: 10.73 cm

Q: And the effect on growth ([1]; 10 μg/mL terrein spraying, drought)?
A: significant promoting effects

Q: And the “growth rate of root length compared with the blank control” value ([1]; 10 μg/mL terrein spraying, drought, 30 days)?
A: 16.45%

Q: What about the “promotion rate of pakchoi root length” value ([2]; terrein 2 μg/mL) of the same compound?
A: 13.51%

Q: And the “promotion rate of pakchoi seedling height” value ([2]; terrein 2 μg/mL)?
A: 21.70%

Q: And the “promotion rate of pakchoi root length” value ([2]; terrein 10 μg/mL)?
A: 18.82%

Q: What about the “promotion rate of pakchoi seedling height” value ([2]; terrein 10 μg/mL) of the same compound?
A: 23.26%

Q: And the “effect on seedling height” value ([2]; terrein 50 μg/mL)?
A: not significant

Q: And the inhibition at 50 µg/mL ([2]; terrein 50 μg/mL, read-out: inhibition rate of pakchoi root length)?
A: 16%

Q: And the inhibition at 250 µg/mL ([2]; read-out: inhibition rate of pakchoi root length)?
A: 86.8%

Q: What about the inhibition at 250 µg/mL ([2]; read-out: inhibition rate of pakchoi seedling height) of the same compound?
A: 5.71%
